Measurements from paper PMC10897476, “Pyridylpiperazine efflux pump inhibitor boosts in vivo antibiotic efficacy against K. pneumoniae” (EMBO Molecular Medicine, 2023).
Marks after values point to notes of the source that are not given here.

Legend:
[1] = tested on: K. pneumoniae ATCC 43816 (WT); assay: MIC of antibiotics with and without EPI (REMA), WT strain; type: cell-based, Klebsiella pneumoniae; conditions: K. pneumoniae WT
Protocol: Overnight cultures were diluted to an OD600 = 0.001 in CAMHB followed by addition of efflux pump inhibitors (EPIs) at a final concentration of 100 µM. […] Plates were incubated at 37 °C for up to 20 h. […] MICs were defined as the concentration that prevented 90% of resazurin turnover compared to the non-treated bacteria.

E. coli BW25113 = assay: PyrPip boosting of pyridomycin activity in E. coli (resazurin reduction); type: cell-based, Escherichia coli; conditions: read-out: PyrPip antibiotic boosting activity EC90; E. coli BW25113 in the presence of 8 μg/mL pyridomycin, resazurin reduction; mean ± SEM
Description: With the aim of developing a PyrPip for in vivo efficacy studies in mice, it was important to optimise the metabolic stability of these efflux pump inhibitors to guarantee sufficient exposure in mice needed for antibiotic boosting. […] To identify metabolically stabilised PyrPips while maintaining AcrB inhibition, it was therefore decided to explore modifications to the quinoline core as well as the introduction of substituents at position 6 of the quinoline ring.

[2] = Microsomal stability in mouse liver microsomes; type: in vitro ADME; conditions: female
Protocol: To determine compound microsomal stability, liver microsomes from female mice (CD-1, Corning) were used. All incubations were performed in duplicate in a shaking water bath at 37 °C. The incubation mixtures contained 1 μM compound with 1% MeOH used as a vehicle, mouse liver microsomes (0.3 mg of microsomal protein per mL), 5 mM MgCl2, 1 mM NADP, 5 mM glucose 6-phosphate, 0.4 U/mL glucose 6-phosphate dehydrogenase, and 50 mM potassium phosphate buffer (pH 7.4) in a final volume of 0.5 mL. Propranolol, known as a high hepatic clearance drug in rodents, was used as a quality-control compound. Controls (t0 and tfinal) were performed in the same conditions but without NADP. The reaction was initiated by the addition of the compound at 1 µM final. Aliquots were removed at 5, 10, 20, 30, and 40 min and the reaction was stopped by adding four volumes of ice-cold MeCN or MeOH containing an internal standard. The samples were centrifuged for 10 min at 12,000 rpm at 4 °C and the supernatants were transferred in matrix tubes for LC-MS/MS analysis. Each compound was quantified by converting the corresponding analyte/internal standard peak area ratios to percentage drug remaining, using the initial ratio values in control incubations as 100%.
Intrinsic clearance (CLint) is expressed as μL/min/mg proteins.

SMILES | Minimum Inhibitory Concentration ([1]; + 100 µM 1') | Minimum Inhibitory Concentration ([1]; + 100 µM 5) | Minimum Inhibitory Concentration ([1]; + 100 µM PAβN) | MIC ([1]; Klebsiella pneumoniae, ATCC43816, No EPI, read-out: Minimum Inhibitory Concentration) [µg/mL] | EC90 (E. coli BW25113) [µM] | microsomal CLint at 1 μM ([2]; CD-1, pH 7.4, read-out: Microsomal stability CLint (intrinsic clearance)) [µL/min/mg] | half-life at 1 μM ([2]; CD-1, pH 7.4, read-out: Microsomal stability t1/2) [min]
C[C@H]1COc2c(N3CCN(C)CC3)c(F)cc3c(=O)c(C(=O)O)cn1c23 [Levofloxacin] | 0.01^# mg/L | 0.01^# mg/L | 0.02^# mg/L | 0.04 |  |  | 
Clc1cc2cc(N3CCNCC3)ccc2nc1N1CCNCC1 [compound 5] |  |  |  |  | 3.3 ± 1.7 | 6 | > 40
